The values that follow come from patent US6469168B1, “Piperazinylalkylthiopyrimidine derivatives, pharmaceutical compositions containing the same, and a process for the preparation of the active substance” (EGIS Gyógyszergyár Rt., priority 1999, dated 2002).

For one data set, the system named is male SPRD rats. Kind of data set: Elevated plus-maze test. Type of data set: in vivo, rat. As to conditions: for minimal effective dose: Rattus norvegicus, po, 1 h, read-out: Minimum effective dose. The procedure: 1. Elevated Plus-Maze Test
The tests were carried out on male SPRD rats weighing 220 to 260 g. Each group of animal consisted of 8 to 10 pieces of rat. The substance to be examined or the vehicle (i.e. distilled water or a 0.4% solution of methylcellulose) was administered to the animals in a volume of 5 ml/kg as a solution or suspension per os 60 minutes prior to the test.
The elevated plus-maze consists of two open and two 40 cm wall enclosed arms of the same size (50×15 cm) arranged in the shape of a cross. The arms of the same type are opposite to each other. The junction of the four arms forms a central square area (15×15 cm). The apparatus is made of a wooden material elevated to a height of 50 cm and illuminated by a dim light from above. The essence of the method is that during the exploration of the apparatus, the animals spend considerably more time in the closed arms than in the open arms due to the natural fear from open space and height. […] Methods., 14, 149-167 (1985)].

The subject of the next data set is male NMRI mice. Kind of data set: Determination of the spontaneous motor activity. As to conditions: p.o., 60 minutes prior to the test, dose producing 50% of inhibition of motor activity. The method, then: 2. Determination of the Spontaneous Motor Activity
For the experiments, male NMRI mice weighing 20 to 25 g were used. Each treatment group consisted of 10 mice. The substance to be examined or the vehicle (i.e. a 0.4% solution of methylcellulose) was administered to the animals in a volume of 20 ml/kg as a suspension per os 60 minutes prior to the test. […] In case of anxiolytics, the value of the anxiolytic effect depends on the presence or absence of the sedative action (the latter is […]). For the experiments, an apparatus “digital motimeter” having 10 measuring places was used. The motion of the animals was indicated by the interruption of three parallel beams of infrared light at each measuring place, and the interruptions were recorded by the apparatus. The activity of one animal was determined at each measuring place. […] Int.

Setting [1] is: p.o., 60 minutes prior to the test, male SPRD rats, time spent in and entries into open arms.

Where a name gives a salt, the structure may show the parent alone. Read-outs that look alike come from different tables or passages of the source.

As to `Nc1nc(SCCN2CCNCC2)nc(N)c1Cc1ccc(F)cc1` [Example 19, 4,6-Diamino-2-[2-(1-piperazinyl)ethylthio]-5-(4-fluorobenzyl)-pyrimidine trihydrochloride hydrate], the minimal effective dose in the data set on male SPRD rats (setting [1]) amounted to 0.01 mg/kg. The molecule also showed an ID50 in the data set with male NMRI mice of over 100 mg/kg.

As for “4,6-Diamino-2-[4-(4-methyl-1-piperazinyl)ethylthio]-5-(2-ethoxybenzyl)pyrimidine trihydrochloride hydrate [Example 13]”, the Minimum effective dose in the data set on male SPRD rats (setting [1]) came out at 1 mg/kg.

As a reminder, the melting point is the temperature of the solid-liquid transition. `COc1ccccc1Cc1c(N)nc(SCCCN2CCN(C(C)=O)CC2)nc1N` [Example 12, 4,6-Diamino-2-[3-(4-acetyl-1-piperazinyl)propylthio]-5-(2-methoxybenzyl)pyrimidine] showed a melting point of 208 to 209 °C. Also, the minimal effective dose with male SPRD rats (setting [1]) was determined as 1 mg/kg.

Take `CN1C(=O)CN=C(c2ccccc2)c2cc(Cl)ccc21` [diazepam, 7-chloro-1,3-dihydro-1-methyl-5-phenyl-2H-1,4-benzodiazepine-2-one, reference compound]: the minimal effective dose in the data set on male SPRD rats amounted to 1 mg/kg.

For the molecule `COc1ccccc1Cc1c(N)nc(SCCN2CCN(CCCN(C)C)CC2)nc1N` [Example 26, 4,6-Diamino-2-{2-[4-(3-dimethylaminopropyl)-1-piperazinyl]-ethylthio}-5-(2-methoxybenzyl)pyrimidine tetrahydrochloride hydrate], in the data set on male SPRD rats (setting [1]), the minimal effective dose worked out at 0.3 mg/kg. For the same molecule, the ID50 with male NMRI mice is on record as over 100 mg/kg.

The molecule `COc1ccccc1Cc1c(N)nc(SCCCCN2CCNCC2)nc1N` (as salt: hydrochloride) [Example 18, 4,6-Diamino-2-[4-(1-piperazinyl)butylthio]-5-(2-methoxybenzyl)-pyrimidine trihydrochloride] yielded a melting point of 255 °C.

Regarding “4,6-Diamino-2-[3-(1-piperazinyl)ethylthio]-5-(2-ethoxybenzyl)-pyrimidine trihydrochloride trihydrate [Example 14]”, in the data set on male SPRD rats (setting [1]), the Minimum effective dose is recorded as 1 mg/kg.

`COc1ccccc1Cc1c(N)nc(SCCCN2CCNCC2)nc1N` (as salt: hydrochloride) [Example 10, 4,6-Diamino-2-[3-(1-piperazinyl)propylthio]-5-(2-methoxy-benzyl)pyrimidine trihydrochloride] showed a melting point of 197 to 198 °C.

For the molecule `COc1ccccc1Cc1c(N)nc(SCCN2CCNCC2)nc1N` [1 (besylate), 4,6-Diamino-5-(2-methoxybenzyl)-2-[2-(1-piperazinyl)ethylthio]-pyrimidine], the Minimum effective dose in the data set on male SPRD rats (setting [1]) is 1 mg/kg. Moreover, the ID50 in the data set on male NMRI mice is given as over 90 mg/kg.

For the molecule “4,6-Diamino-2-[2-(4-methyl-1-piperazinyl)propylthio]-5-(2-methoxybenzyl)pyrimidine trihydrochloride hydrate [Example 4]”, the Minimum effective dose in the data set with male SPRD rats (setting [1]) is 1 mg/kg. For the same molecule, the ID50 in the data set with male NMRI mice was 32.8 mg/kg.

For `COc1ccccc1Cc1c(N)nc(SCCCCN2CCN(C)CC2)nc1N` (as salt: hydrochloride) (hydrate or solvate) [Example 8, 4,6-Diamino-2-[4-(4-methyl-1-piperazinyl)butylthio]-5-(2-methoxybenzyl)pyrimidine trihydrochloride hydrate], the melting point was found to be 202 °C.

`CCOc1ccccc1Cc1c(N)nc(SCCCN2CCN(C=O)CC2)nc1N` [Example 7, 4,6-Diamino-2-[3-(4-formyl-1-piperazinyi)propylthio]-5-(2-ethoxybenzyl)pyrimidine]: the Minimum effective dose in the data set on male SPRD rats (setting [1]) was under 1 mg/kg. This molecule yielded an ID50 with male NMRI mice of over 100 mg/kg.

In the case of `COc1ccccc1Cc1c(N)nc(SCCCCN2CCN(C)CC2)nc1N` [Example 8, 4,6-Diamino-2-[4-(4-methyl-1-piperazinyl)butylthio]-5-(2-methoxybenzyl)pyrimidine trihydrochloride hydrate], the minimal effective dose with male SPRD rats (setting [1]) was 3 mg/kg. The same molecule registered an ID50 with male NMRI mice of over 100 mg/kg.

Consider `COc1ccccc1Cc1c(N)nc(SCCN2CCN(C(C)C)CC2)nc1N` [Example 5, 4,6-Diamino-2-[2-(4-isopropyl-1-piperazinyl)ethylthio]-5-(2-methoxybenzyl)pyrimidine trihydrochloride hydrate], for which the minimal effective dose in the data set on male SPRD rats (setting [1]) was 3 mg/kg. Also, in the data set with male NMRI mice, the ID50 was over 100 mg/kg.

With `CC(C)c1ccc(Cc2c(N)nc(SCCN3CCNCC3)nc2N)cc1` [Example 25, 4,6-Diamino-2-[2-(1-piperazinyl)ethylthio]-5-(4-isopropylbenzyl)-pyrimidine], the melting point is 63 to 64 °C.

Take `Nc1nc(SCCCN2CCNCC2)nc(N)c1Cc1ccc(Cl)cc1` [Example 17, 4,6-Diamino-2-[3-(1-piperazinyl)propylthio]-5-(4-chlorobenzyl)-pyrimidine trihydrochloride trihydrate]: the minimal effective dose with male SPRD rats (setting [1]) was determined as 1 mg/kg. In the data set with male NMRI mice, this molecule registered an ID50 of over 100 mg/kg.

`Nc1nc(SCCCN2CCNCC2)nc(N)c1Cc1ccc(Cl)cc1` (as salt: hydrochloride) (hydrate or solvate) [Example 17, 4,6-Diamino-2-[3-(1-piperazinyl)propylthio]-5-(4-chlorobenzyl)-pyrimidine trihydrochloride trihydrate] showed a melting point of 187 °C.

Consider `COc1ccccc1Cc1c(N)nc(SCCN2CCN(CCCN(C)C)CC2)nc1N` (as salt: hydrochloride) (hydrate or solvate) [Example 26, 4,6-Diamino-2-{2-[4-(3-dimethylaminopropyl)-1-piperazinyl]-ethylthio}-5-(2-methoxybenzyl)pyrimidine tetrahydrochloride hydrate], for which the melting point fell in the range of 262 to 264 °C.

As for `COc1ccccc1Cc1c(N)nc(SCCCN2CCN(C=O)CC2)nc1N` [Example 9, 4,6-Diamino-2-[3-(4-formyl-1-piperazinyl)propylthio]-5-(2-methoxybenzyl)pyrimidine], the melting point fell in the range of 174 to 176 °C. Also, the minimal effective dose in the data set with male SPRD rats (setting [1]) amounted to 3 mg/kg.

`Nc1nc(SCCN2CCNCC2)nc(N)c1Cc1ccc(F)cc1` (as salt: hydrochloride) (hydrate or solvate) [Example 19, 4,6-Diamino-2-[2-(1-piperazinyl)ethylthio]-5-(4-fluorobenzyl)-pyrimidine trihydrochloride hydrate] yielded a melting point of 168 to 170 °C.

Take `COc1ccccc1Cc1c(N)nc(SCCN2CCNCC2)nc1N` [Example 1 (fumarate), 4,6-Diamino-5-(2-methoxybenzyl)-2-[2-(1-piperazinyl)ethylthio]-pyrimidine]: the Minimum effective dose in the data set with male SPRD rats (setting [1]) is on record as 3 mg/kg. Further, in the data set with male NMRI mice, the ID50 is reported as over 100 mg/kg.

`COc1ccccc1Cc1c(N)nc(SCCN2CCN(C(C)=O)CC2)nc1N` [Example 16, 4,6-Diamino-2-[2-(4-acetyl-1-piperazinyl)ethylthio]-5-(2-methoxybenzyl)pyrimidine] returned a melting point of 198.5 to 199.5 °C. In addition, the minimal effective dose in the data set with male SPRD rats (setting [1]) worked out at 3 mg/kg. For the same molecule, the ID50 with male NMRI mice is over 100 mg/kg.

Consider `COc1ccccc1Cc1c(N)nc(SCCCCN2CCNCC2)nc1N` [Example 18, 4,6-Diamino-2-[4-(1-piperazinyl)butylthio]-5-(2-methoxybenzyl)-pyrimidine trihydrochloride], for which, in the data set on male SPRD rats (setting [1]), the minimal effective dose was 1 mg/kg. Besides, in the data set with male NMRI mice, the ID50 is on record as over 100 mg/kg.

Consider “4,6-Diamino-2-[2-/4-(2-dimethylaminoethyl)-1-piperazinyl/-ethyl-thio]-5-(2-methoxybenzyl)pyrimidine tetrahydrochloride dihydrate [Example 6]”, for which the Minimum effective dose with male SPRD rats (setting [1]) was determined as 0.03 mg/kg. This molecule showed an ID50 in the data set with male NMRI mice of over 100 mg/kg.

Molecule `COc1ccccc1Cc1c(N)nc(SCCN2CCN(C(C)C)CC2)nc1N` (as salt: hydrochloride) (hydrate or solvate) [Example 5, 4,6-Diamino-2-[2-(4-isopropyl-1-piperazinyl)ethylthio]-5-(2-methoxybenzyl)pyrimidine trihydrochloride hydrate] came in with a melting point of 253 to 255 °C.

“4,6-Diamino-5-(2-methoxybenzyl)-2-[2-(1-piperazinyl)ethylthio]-pyrimidine fumarate [Example 2]”: the Minimum effective dose with male SPRD rats (setting [1]) came to 1 mg/kg. Also, in the data set on male NMRI mice, the ID50 was over 100 mg/kg.

With `COc1ccccc1Cc1c(N)nc(SCCCN2CCNCC2)nc1N` [Example 10, 4,6-Diamino-2-[3-(1-piperazinyl)propylthio]-5-(2-methoxy-benzyl)pyrimidine trihydrochloride], the minimal effective dose in the data set on male SPRD rats (setting [1]) turned out to be 1 mg/kg.
